Reference: PMC2792720, “Binding of NIR-conPK and NIR-6T to Astrocytomas and Microglial Cells: Evidence for a Protein Related to TSPO” (PLoS ONE, 2009)
Blank lines part the entries; values can stand above or below the compound they belong to.

Molecular target: T1, TSPO (Mus musculus, UniProt P50637)
T1 construct: mitochondrial-enriched membranes from DBT cells were prepared by lysing cells with ice-cold homogenization buffer; endogenous in cells; host or cells: DBT mouse astrocytoma cells (mitochondrial-enriched membranes / homogenates), untreated or cytokine-treated
Assay: Filtration radioligand binding assay, [^3H]-PK 11195 binding to DBT cell homogenates
Set-up: Bmax: unit not given here
Protocol: Enriched membranes were prepared according to [28]. Briefly, mitochondrial-enriched membranes from DBT cells were prepared by lysing cells with ice-cold homogenization buffer (50 mM Tris, 1 mM EDTA and 3 mM MgCl2), followed by dounce homogenization (five gentle strokes). Homogenates were centrifuged (40,000×g, 15 min, 4°C) and cell pellet resuspended in 0.5 ml homogenization buffer, re-homogenized by dounce (five gentle strokes while on ice) and centrifuged again (40,000×g, 15 min, 4°C). Cell pellets were stored at −80°C until further use. Radioligand binding assays were performed in silanized glass test tubes (Kimble Glass Inc.). The following components were added: 50 µl of non-radiolabeled DAA1106 or PK 11195, 50 µl of [N-methyl-^3H]-PK 11195 (PerkinElmer, Boston MA; 250 µCi, 84.8 Ci/mmol) and 100 µl of protein (50 µg, which started the incubation) for a total volume of 200 µl in binding buffer (50 mM Tris, 1 mM EDTA, 3 mM MgCl2 and 0.1% BSA), all of which was placed in a water bath (30°C) with mild agitation for 1 hr. Incubation was stopped by rapid filtration and rinsing with ice-cold binding buffer, using the Brandel harvester (Gaithersburg, MD) and Whatman GFB filter paper (Brandel, Gaithersburg MD). Filters were then transferred to 7 ml glass scintillation vials (VWR, West Chester PA). Five ml of Ecoscint XR scintillation fluid (National Diagnostics, Atlanta, GA) was added, followed by 10 sec vortexing and ∼18 hrs incubation at room temperature prior to determining the radioactivity with a scintillation counter (PerkinElmer, Boston MA).
Data are expressed as n = number of determinations (three per independent experiment). Statistical analysis, Kd and Ki values were calculated using non-linear regression with a one binding site hyperbola, where X is the concentration of the ligand, Y is specific binding and Bmax and Kd are determined using this equation: Y = Bmax X/Kd+X calculated by GraphPad Prism 4.

SMILES: CCC(C)N(C)C(=O)c1cc2ccccc2c(-c2ccccc2Cl)n1 (centres unmarked) [PK 11195]
- EC50 (DBT cell homogenates, read-out: EC50, competition for [^3H]-PK 11195 binding): 93 nM

SMILES: [3H]CN(C(=O)c1cc2ccccc2c(-c2ccccc2Cl)n1)C(C)CC (centres unmarked) [[^3H]-PK 11195, [N-methyl-^3H]-PK 11195]
- amount of TSPO detected with [^3H]-PK 11195 (Bmax) (DBT cell homogenates, untreated cells): 14 pmol of TSPO per gram of protein
- Bmax (homogenates of DBT cells treated with IFNγ (100 Ui/ml), 18–24 hrs): 17.0+/−2.6
- Bmax (homogenates of DBT cells treated with IFNγ+TNFα, 18–24 hrs): 17.6+/−2.4
- Bmax (homogenates of DBT cells treated with TGFβ2 (1 ng/ml), 18–24 hrs): 22.1+/−4.7
- Bmax (homogenates of DBT cells treated with TNFα (5 ng/ml), 18–24 hrs): 17.4+/−2.9
- Bmax (homogenates of DBT cells, Control (vehicle, 18–24 hrs)): 14.0+/−1.1

- Ki (DBT cell homogenates, read-out: Ki, competition for [^3H]-PK 11195 binding): 0.2 nM
SMILES: COc1ccc(OC)c(CN(C(C)=O)c2cc(F)ccc2Oc2ccccc2)c1 [DAA1106]
